Laboratory results reported in patent US9125413B1, “Nematicide composition comprising CED-4 peptide” (California State University Fresno, priority 2014, dated 2015).

Experiments:
Assay type in all cases: in vivo, Caenorhabditis elegans
[1] = tested on: C. elegans nematodes at the L1 stage; assay: Nematicide efficacy of CED-4 peptides, 96-well incubation of C. elegans L1, viability by probe touch; settings: for # of nematodes Alive in all combined successful experiments / # of nematodes Dead in all combined successful experiments / Percentage % Alive / Percentage % Dead (mortality rate): three days, about 37° C.
Description: (§1) Assays were performed using 96-well plates. C. elegans nematodes at the L1 stage (refer to FIG. 1) were incubated in each of the 96 wells for three days at about 37° C. at about 0.8 mg/ml peptide concentration for each tested CED-4 peptide. Each of the selected CED-4 peptides were diluted in distilled water to 0.8 mg/ml peptide concentration. Nematodes—numbering between two nematodes and four nematodes—averaging about three nematodes were incubated in 100 μl of CED-4 peptide solution at about 0.8 mg/ml concentration in each well. After a three-day incubation period, the exposed C. elegans nematodes were checked for viability under a dissecting microscope.
The percentage of dead C. elegans from all of the successful experiments is also referred to as the “mortality rate.”
(§2) Each separate well containing nematodes was considered an independent trial experiment. A well in which all of the incubated nematodes were either clearly alive or clearly dead at the end of the incubation period was recorded as one successful experiment. A well in which some or all of the incubated nematodes could not clearly be determined as alive or dead at the end of the incubation period was recorded as one unsuccessful experiment. At a concentration of about 0.8 mg/ml, nine trial experiments were carried out for each of the twelve designed CED-4 peptides.
as §1, with “0.4” for “0.8”
as §2, with “0.4” for “0.8”, “eight” for “nine”

[2] = tested on: C. elegans wild-type (N2 strain) nematodes; assay: Fecundity of C. elegans wild-type nematodes fed E. coli producing CED-4
Description: (§3) Constructed expression cassettes generate CED-4 protein in bacteria. […] In this experiment, the ced-4 gene was sub-cloned into the pBAD-DEST49 vector. The pBAD-DEST49-ced-4 construct, and the pBAD-DEST49 empty vector were tested for synthesis of the protein CED-4. The E. coli bacteria strain (TOP 10 chem.) was grown, and once the optical density OD600 reached 0.5, the bacteria was induced by adding L-Arabinose 20% and incubated for four hours at 37° C., 226 rpm in rotary shaker (C24, incubator shaker, Edison, N.J. USA). The production of CED-4 protein was analyzed by SDS 10% acrylamide gel and commassie blue staining.
The genes ced-4 and ced-3 are required for PCD in somatic cells of C. elegans, and a loss-of-function (lf) mutation in any one of them results in increased survival rates of cells that would otherwise be eliminated by PCD. In the experiment summarized by FIG. 5, bacteria carrying the ced-4 gene construct and bacteria carrying an empty vector were grown as described above in Section E, and used to feed C. elegans wild-type nematodes, mutant C. elegans ced-3 nematodes, and mutant C. elegans ced-4 nematodes at L1/L2 stages (refer to FIG. 1). For the experiment described in FIG. 5, C. elegans wild-type (wt), ced-3 (n717) and ced-4 (n1162) strains were synchronized, and the hatched nematodes were raised on a diet consisting of E. coli bacteria producing CED-4. Both nematodes and bacteria were sustained on NGM media and incubated at a temperature between 25° C. and 28° C.
(§4) The effects of CED-4 ingestion on all three different strains of C. elegans used were quantified by population size throughout several generations. After the hatched nematodes fed on either the control bacteria or the CED-4 producing bacteria for 72 hours, the nematodes in each experiment were scored for fecundity over the course of 120 hrs. Fecundity was measured by counting the number of hatched offspring. There were ten experiments replicated for each of the three analyzed C. elegans strains.

[3] = tested on: C. elegans ced-4 (n1162) mutant nematodes; assay: Fecundity of ced-4 mutant C. elegans fed E. coli producing CED-4
Description: as §3
(§5) The genes ced-4 and ced-3 are required for PCD in somatic cells of C. elegans, and a loss-of-function (lf) mutation in any one of them results in increased survival rates of cells that would otherwise be eliminated by PCD. […]
as §4

[4] = tested on: C. elegans ced-3 (n717) mutant nematodes; assay: Fecundity of ced-3 mutant C. elegans fed E. coli producing CED-4
Description: as §3, §5, §4

[5] = peptide concentration of 0.4 mg/ml
[6] = peptide concentration of 0.8 mg/ml
[7] = versus non-CED-4 producing bacteria

## H-DVEISNAASQTCEFIEVTSLE-OH [Peptide 7]
[1]; 0.4 mg/ml
  # of nematodes Alive in all combined successful experiments: 19
  # of nematodes Dead in all combined successful experiments: 0
  Percentage % Alive: 100%
  Percentage % Dead (mortality rate): 0%
[1]; 0.8 mg/ml
  # of nematodes Alive in all combined successful experiments: 18
  # of nematodes Dead in all combined successful experiments: 0
  Percentage % Alive: 100%
  Percentage % Dead (mortality rate): 0%
[1]; [5]
  nematicide efficacy: not associated with a high number of dead nematodes
[1]; [6]
  nematicide efficacy: not associated with a high number of dead nematodes

## H-LVGVECITPYSYKSLAMALQR-OH [Peptide 9]
[1]; 0.4 mg/ml
  # of nematodes Alive in all combined successful experiments: 18
  # of nematodes Dead in all combined successful experiments: 0
  Percentage % Alive: 100%
  Percentage % Dead (mortality rate): 0%
[1]; 0.8 mg/ml
  # of nematodes Alive in all combined successful experiments: 8
  # of nematodes Dead in all combined successful experiments: 0
  Percentage % Alive: 100%
  Percentage % Dead (mortality rate): 0%
[1]; [5]
  nematicide efficacy: not associated with a high number of dead nematodes
[1]; [6]
  nematicide efficacy: not associated with a high number of dead nematodes

## H-TSVVLKRMICNALI-OH [Peptide 6]
[1]; 0.4 mg/ml
  # of nematodes Alive in all combined successful experiments: 9
  # of nematodes Dead in all combined successful experiments: 0
  Percentage % Alive: 100%
  Percentage % Dead (mortality rate): 0%
[1]; 0.8 mg/ml
  # of nematodes Alive in all combined successful experiments: 9
  # of nematodes Dead in all combined successful experiments: 0
  Percentage % Alive: 100%
  Percentage % Dead (mortality rate): 0%
[1]; [5]
  nematicide efficacy: not associated with a high number of dead nematodes
[1]; [6]
  nematicide efficacy: not associated with a high number of dead nematodes

## H-RQMLDRKLLLGNVPKQMTC-OH [Peptide 3]
[1]; 0.4 mg/ml
  Percentage % Alive: 40%
  Percentage % Dead (mortality rate): 60%
[1]; 0.8 mg/ml
  # of nematodes Dead in all combined successful experiments: 20
  Percentage % Alive: 0%
  Percentage % Dead (mortality rate): 100%

## H-TCYIREYHVDRVI-OH [Peptide 4]
[1]; 0.4 mg/ml
  Percentage % Alive: 64.28%
[1]; 0.8 mg/ml
  Percentage % Alive: 50%

## NH3—ILLMLKSEDDLLNF-COOH (H-ILLMLKSEDDLLNF-OH) [Peptide 5, ID No. 1]
[1]; [5]
  nematicide efficacy: not associated with a high number of dead nematodes
[1]; [6]
  nematicide efficacy: not associated with a high number of dead nematodes

## H-DLLRPVVIAPQFSRQ-OH [Peptide 2]
[1]; 0.4 mg/ml
  Percentage % Alive: 92.3%
  Percentage % Dead (mortality rate): 7.7%
[1]; 0.8 mg/ml
  Percentage % Alive: 0%
  Percentage % Dead (mortality rate): 100%

## H-VDAQTIANGISILEQRL-OH [Peptide 11]
[1]; 0.4 mg/ml
  # of nematodes Alive in all combined successful experiments: 22
  # of nematodes Dead in all combined successful experiments: 0
  Percentage % Alive: 100%
  Percentage % Dead (mortality rate): 0%
[1]; 0.8 mg/ml
  Percentage % Alive: 70%
  Percentage % Dead (mortality rate): 30%
[1]; [5]
  nematicide efficacy: not associated with a high number of dead nematodes

## bovine serum albumin [BSA, reference compound]
[1]; 0.4 mg/ml
  # of nematodes Alive in all combined successful experiments: 21
  # of nematodes Dead in all combined successful experiments: 0
  Percentage % Alive: 100%
[1]; 0.8 mg/ml
  # of nematodes Alive in all combined successful experiments: 26
  # of nematodes Dead in all combined successful experiments: 0
  Percentage % Alive: 100%

## H-ALLSGKRMPVLTFKI-OH [Peptide 10]
[1]; 0.4 mg/ml
  Percentage % Alive: 30%
  Percentage % Dead (mortality rate): 70%
[1]; 0.8 mg/ml
  Percentage % Alive: 66.7%
  Percentage % Dead (mortality rate): 33.3%

## H-QSHLADFLEDYIDFAINE-OH [Peptide 1]
[1]; 0.4 mg/ml
  # of nematodes Alive in all combined successful experiments: 14
  # of nematodes Dead in all combined successful experiments: 0
  Percentage % Alive: 100%
  Percentage % Dead (mortality rate): 0%
[1]; [5]
  nematicide efficacy: not associated with a high number of dead nematodes
[1]; [6]
  nematicide efficacy: not associated with a high number of dead nematodes

## H-FPKFMQLHQKFY-OH [Peptide 12]
[1]; 0.4 mg/ml
  Percentage % Alive: 33.3%
[1]; 0.8 mg/ml
  # of nematodes Alive in all combined successful experiments: 0
  Percentage % Alive: 0%

## H-MMFFKSCEPKTFEKMAQLNNKLESR-OH [Peptide 8]
[1]; 0.4 mg/ml
  # of nematodes Alive in all combined successful experiments: 10
  Percentage % Alive: 90.90%
  Percentage % Dead (mortality rate): 9.09%
[1]; 0.8 mg/ml
  # of nematodes Alive in all combined successful experiments: 2
  # of nematodes Dead in all combined successful experiments: 0
  Percentage % Alive: 100%
  Percentage % Dead (mortality rate): 0%
[1]; [6]
  nematicide efficacy: not associated with a high number of dead nematodes

B1: CED-4: 549 amino acid C. elegans protein (SEQ. ID 1, GenBank CAA48781.1), about 62 KD, produced recombinantly in E. coli; fed as CED-4 producing bacteria (protein)
chain: MLCEIECRALSTAHTRLIHDFEPRDALTYLEGKNIFTEDHSELISKMSTRLERIANFLRIYRRQASELGPLIDFFNYNNQSHLADFLEDYIDFAINEPDLLRPVVIAPQFSRQMLDRKLLLGNVPKQMTCYIREYHVDRVIKKLDEMCDLDSFFLFLHGRAGSGKSVIASQALSKSDQLIGINYDSIVWLKDSGTAPKSTFDLFTDILLMLKSEDDLLNFPSVEHVTSVVLKRMICNALIDRPNTLFVFDDVVQEETIRWAQELRLRCLVTTRDVEISNAASQTCEFIEVTSLEIDECYDFLEAYGMPMPVGEKEEDVLNKTIELSSGNPATLMMFFKSCEPKTFEKMAQLNNKLESRGLVGVECITPYSYKSLAMALQRCVEVLSDEDRSALAFAVVMPPGVDIPVKLWSCVIPVDICSNEEEQLDDEVADRLKRLSKRGALLSGKRMPVLTFKIDHIIHMFLKHVVDAQTIANGISILEQRLLEIGNNNVSVPERHIPSHFQKFRRSSASEMYPKTTEETVIRPEDFPKFMQLHQKFYDSLKNFACC
[2]; 2 wild-type embryos per experiment, fed bacteria expressing CED-4 72 hours, fecundity scored over 120 hrs, ten experiments
  number of hatched offspring (mean): about 115 hatched offspring
[2]; wild-type fed bacteria expressing CED-4 for 6 days
  increase in rate of cell death: approximately 2 fold
[2]; wild-type, CED-4 fed, t-test p≦0.01
  offspring produced relative to those fed bacteria containing empty expression vectors: less than 50%
[2]; wild-type, ingesting bacteria expressing CED-4
  reduction in fecundity: 50%
[3]; 2 ced-4 mutant embryos per experiment, exposed to CED-4 producing bacteria, ten experiments
  number of hatched offspring (mean): about 236 hatched offspring
[3]; [7]
  decrease in ced-4 mutant fecundity due to exogenous CED-4: statistically insignificant
[4]; 2 ced-3 mutant embryos per experiment, ingesting CED-4 producing bacteria, ten experiments
  number of hatched offspring (mean): about 220 hatched offspring
[4]; [7]
  decrease in ced-3 mutant fecundity due to exogenous CED-4: statistically insignificant
